Source: ChEMBL document CHEMBL1201862, “PubChem BioAssay data set” (2004)
Calls of active or inactive are those of the source.

Experiments:
[1] = target: T1, Sentrin-specific protease 8 (Homo sapiens, UniProt Q96LD8); assay type: functional
T1 sequence (Q96LD8 whole entry): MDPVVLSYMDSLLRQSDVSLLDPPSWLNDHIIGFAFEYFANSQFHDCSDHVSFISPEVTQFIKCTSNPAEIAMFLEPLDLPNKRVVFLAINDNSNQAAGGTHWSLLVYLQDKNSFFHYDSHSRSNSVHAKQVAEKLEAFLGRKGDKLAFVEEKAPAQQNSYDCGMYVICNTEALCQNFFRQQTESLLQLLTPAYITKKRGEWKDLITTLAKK

[2] = target: T1, Sentrin-specific protease 8; assay type: functional; remark: listed apart in the source
[3] = loss of viability in HepG2 cells – cell-based, CellTiter-Glo, cherry-picked, cytotoxicity control for Shn3 inhibitor project, dose response (AID 624134); assay type: functional
[4] = non-specific 3'UTR reporter inhibition in Clone20-Shn3RL – cell-based, Renilla luciferase, cherry-picked, counter-screen for Shn3 inhibitor project, dose response (AID 624133); assay type: functional
[5] = reduction of Shn3 3'UTR-driven luciferase in osteoblasts – cell-based, Clone20 osteoblasts, firefly luciferase, cherry-picked, dose response (AID 624132); assay type: functional;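 note: firefly luciferase luminescence from reporter carrying the Shn3 3'UTR in osteoblasts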
[6] = target: T2, Carboxy-terminal domain RNA polymerase II polypeptide A small phosphatase 1 (Homo sapiens, UniProt Q9GZU7); test: CTDSP1 inhibitors, concentration-response, biochemical, absorbance readout, ultra-high-throughput screen actives (AID 540297); assay type: functional
T2 sequence (Q9GZU7 whole entry): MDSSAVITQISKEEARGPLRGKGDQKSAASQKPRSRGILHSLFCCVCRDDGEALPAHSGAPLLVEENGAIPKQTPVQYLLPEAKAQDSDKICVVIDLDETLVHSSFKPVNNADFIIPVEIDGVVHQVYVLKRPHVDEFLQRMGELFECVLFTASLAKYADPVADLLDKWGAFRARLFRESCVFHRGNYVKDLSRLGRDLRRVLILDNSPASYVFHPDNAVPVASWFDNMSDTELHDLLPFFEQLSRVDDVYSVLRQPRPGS

[7] = HIV-1 AD8 envelope cell-cell fusion blockers – cherry-pick, dose response (AID 652062); assay type: functional, cell-based;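 note: luciferase signal from cell-cell fusion driven by HIV-1 clade B AD8 Env; potency is for inhibitors of fusion seen as a drop in luminescence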
[8] = Trypanosoma cruzi growth suppression in host cells – NIH3T3 host cells, beta-gal luminescence, confirmation (AID 2044); assay type: functional, cell-based;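 note: intracellular parasites grown in NIH/3T3 mouse fibroblasts as host cells; luminescent beta-galactosidase reporter signal from transgenic T. cruzi replicating inside host cells; inhibitors lower the luminescence signal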
[9] = NIH3T3 cell viability loss – ATP luminescence, mouse fibroblasts, counter-screen, dose response (AID 2010); assay type: functional, cell-based;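 note: cells exposed to compound for about 90 hours before reading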
[10] = target: T3, Microphthalmia-associated transcription factor (Homo sapiens, UniProt O75030); test: reducers of TRPM1 reporter luminescence, concentration series – cell-based, SK-MEL-5, cherry-picked, set 3, MITF inhibitor project, dose response (AID 493073); assay type: functional;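 note: SK-MEL-5 melanoma cells with luciferase driven by the MITF target TRPM1 promoter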
T3 sequence (O75030 whole entry): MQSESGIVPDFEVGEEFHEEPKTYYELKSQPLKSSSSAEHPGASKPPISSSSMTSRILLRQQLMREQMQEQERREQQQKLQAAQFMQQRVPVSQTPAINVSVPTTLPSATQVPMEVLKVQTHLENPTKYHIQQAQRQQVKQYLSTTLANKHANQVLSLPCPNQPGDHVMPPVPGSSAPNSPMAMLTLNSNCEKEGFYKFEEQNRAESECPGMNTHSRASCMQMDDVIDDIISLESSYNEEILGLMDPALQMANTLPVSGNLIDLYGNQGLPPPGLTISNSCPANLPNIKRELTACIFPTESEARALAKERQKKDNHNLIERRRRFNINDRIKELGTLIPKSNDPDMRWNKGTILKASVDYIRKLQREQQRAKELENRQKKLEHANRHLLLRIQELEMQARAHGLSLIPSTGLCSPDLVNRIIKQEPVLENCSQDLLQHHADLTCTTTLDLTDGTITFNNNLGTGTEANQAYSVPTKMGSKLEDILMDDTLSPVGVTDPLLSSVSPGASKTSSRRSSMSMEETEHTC

INS1 = test: INS-1E survival protection against cytokine death – cell-based, luminescence, retest, dose response (AID 449756); assay type: functional; details: Rattus norvegicus;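 note: cell death triggered by IL-1 beta plus TNF-alpha plus IFN-gamma mixture; protective hits raise ATP signal compared with cytokine alone wells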
[11] = microbe, parasite or virus in culture; assay type: functional; details: Mycobacterium tuberculosis
[12] = target: T4, Rac GTPase-activating protein 1 (Homo sapiens, UniProt Q9H0H5); test: blockers of MgcRacGAP-driven Rac1 GTP hydrolysis – biochemical, ADP Hunter fluorescence, primary and confirmatory, confirmation (AID 624330); assay type: functional
T4 sequence (Q9H0H5 whole entry): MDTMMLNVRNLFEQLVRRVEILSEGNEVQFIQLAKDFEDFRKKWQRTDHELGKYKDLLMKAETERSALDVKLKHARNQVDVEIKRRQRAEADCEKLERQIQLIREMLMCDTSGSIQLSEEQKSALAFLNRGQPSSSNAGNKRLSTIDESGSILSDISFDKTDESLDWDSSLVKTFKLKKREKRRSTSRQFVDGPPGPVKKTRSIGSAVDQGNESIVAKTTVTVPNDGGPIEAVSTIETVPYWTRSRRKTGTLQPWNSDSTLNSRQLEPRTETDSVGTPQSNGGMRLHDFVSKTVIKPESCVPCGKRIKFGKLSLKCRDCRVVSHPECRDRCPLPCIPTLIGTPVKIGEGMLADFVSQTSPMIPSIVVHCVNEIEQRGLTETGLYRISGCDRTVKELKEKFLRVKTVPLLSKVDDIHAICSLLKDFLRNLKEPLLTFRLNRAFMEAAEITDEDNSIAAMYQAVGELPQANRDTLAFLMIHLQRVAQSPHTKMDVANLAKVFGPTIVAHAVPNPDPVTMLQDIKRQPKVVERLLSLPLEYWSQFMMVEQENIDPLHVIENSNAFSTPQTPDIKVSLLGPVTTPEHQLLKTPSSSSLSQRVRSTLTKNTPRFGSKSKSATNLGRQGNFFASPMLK

Large T antigen = Large T antigen (Simian virus 40, UniProt P03070); assay type: functional, Betapolyomavirus macacae;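 note: Confirmatory-stage PubChem screen for compounds that inhibit SV40 T antigen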
Chain of Large T antigen (P03070 whole entry): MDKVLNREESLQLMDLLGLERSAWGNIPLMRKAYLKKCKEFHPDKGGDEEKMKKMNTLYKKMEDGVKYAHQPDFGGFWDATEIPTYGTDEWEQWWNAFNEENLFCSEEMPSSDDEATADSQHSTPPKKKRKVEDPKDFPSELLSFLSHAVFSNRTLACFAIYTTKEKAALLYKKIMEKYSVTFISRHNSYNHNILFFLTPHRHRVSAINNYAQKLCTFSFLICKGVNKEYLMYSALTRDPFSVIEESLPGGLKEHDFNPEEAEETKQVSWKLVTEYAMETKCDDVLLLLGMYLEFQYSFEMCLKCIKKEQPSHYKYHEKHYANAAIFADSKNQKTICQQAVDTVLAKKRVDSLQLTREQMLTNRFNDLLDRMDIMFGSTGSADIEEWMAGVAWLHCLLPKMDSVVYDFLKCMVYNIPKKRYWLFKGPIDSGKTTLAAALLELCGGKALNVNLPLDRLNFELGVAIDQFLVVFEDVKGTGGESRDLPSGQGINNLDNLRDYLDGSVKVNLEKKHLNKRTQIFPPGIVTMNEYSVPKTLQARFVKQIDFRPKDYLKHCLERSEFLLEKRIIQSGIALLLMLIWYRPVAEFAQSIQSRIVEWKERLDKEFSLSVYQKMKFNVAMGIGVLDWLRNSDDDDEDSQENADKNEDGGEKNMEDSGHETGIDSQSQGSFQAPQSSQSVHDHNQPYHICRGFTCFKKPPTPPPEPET

[13] = viability of HCT116 lacking mutant beta-catenin – cell-based, human colon tumor, dose response (AID 1045); assay type: functional;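 note: HCT116 colon tumor cells with beta catenin knocked out; cells exposed to compound for 60 hours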
[14] = Luminescence Cell-Based Dose Retest to Confirm Inhibitors of Cancer Stem Cells. [Related pubchem assays (depositor defined):AID2717, AID2721]; assay type: functional; details: Homo sapiens
[15] = viability of PTEN-deleted HCT116 cells – cell-based, HCT116 PTEN knockout, dose response (AID 1047); assay type: functional;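 note: HCT116 colon tumor cells with PTEN knocked out; cells exposed to compound for 60 hours before readout; potency for loss of cell viability measured by luminescence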
[16] = luciferase reporter signal suppression in cells – H4 neuroglioma cells, luminescence, dose response (AID 1990); assay type: functional, cell-based
H9c2 = test: cells; assay type: functional, cell-based; details: Rattus norvegicus, H9c2, Myocardium
[17] = Luminescence Cell-Based Dose Response HTS to Identify Inhibitors of 5'UTR Stem-Loop Driven Prion Protein mRNA Translation in H4 Neuroglioblastoma Cells. [Related pubchem assays: 1827 (Project Summary), 1813 (Primary HTS)]; assay type: functional
[18] = alpha-synuclein stem-loop luciferase translation blockers – H4 neuroglioma cells, luminescence, confirmation (AID 1988); assay type: functional, cell-based
[19] = target: T5, Heat shock factor protein 1 (Mus musculus, UniProt P38532); test: decrease of HSF1-responsive luciferase luminescence – cell-based, NIH3T3, dose retest, confirmation (AID 2382); assay type: functional;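 note: NIH3T3 fibroblasts with HSF1-driven luciferase reporter stressed by proteasome inhibitor MG132; luminescence from HSF1-driven luciferase expression after 8 hours of MG132 stress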
T5 sequence (P38532 whole entry): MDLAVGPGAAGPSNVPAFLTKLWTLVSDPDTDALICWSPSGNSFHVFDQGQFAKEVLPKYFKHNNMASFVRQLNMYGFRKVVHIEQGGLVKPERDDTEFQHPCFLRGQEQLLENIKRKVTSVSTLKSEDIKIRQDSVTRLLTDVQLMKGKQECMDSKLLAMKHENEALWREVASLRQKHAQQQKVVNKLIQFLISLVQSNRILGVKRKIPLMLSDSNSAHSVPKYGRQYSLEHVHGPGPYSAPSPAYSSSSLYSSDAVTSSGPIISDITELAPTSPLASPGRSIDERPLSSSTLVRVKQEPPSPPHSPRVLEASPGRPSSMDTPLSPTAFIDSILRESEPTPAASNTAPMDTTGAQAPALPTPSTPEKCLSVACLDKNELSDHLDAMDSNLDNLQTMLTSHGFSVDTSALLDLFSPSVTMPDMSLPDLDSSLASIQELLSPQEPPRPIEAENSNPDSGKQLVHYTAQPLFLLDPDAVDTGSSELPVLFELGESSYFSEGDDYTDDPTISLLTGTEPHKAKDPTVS

## CN(c1ccc(C(=O)N2CCc3ccccc3C2)cc1)S(C)(=O)=O
[1]
  IC50: 13.1 µM (active)
[2]
  IC50: 90.5 µM (inactive)

## COc1ccccc1N=C(N)Nc1nc(O)cc(CSc2ccc(C)cc2)n1
[3]
  AC50: 59.8 µM (active)
[4]
  AC50: 12.4 µM (active)
[5]
  AC50: 2.95 µM (active)

## O=C(/C=C/c1ccco1)N1CCN(S(=O)(=O)c2ccccc2)CC1
[6]
  IC50: 4.94 µM (active)

## Nc1ccn([C@@H]2O[C@H](C(=O)NCc3ccc4c(c3)OCO4)[C@@H](O)[C@H]2O)c(=O)n1
[7]
  AC50: 0.723 µM (active)

## Cc1ccc(C#CC[N+]2(CC#Cc3ccc(C)cc3)CCCCC2)cc1
[8]
  EC50: 0.344 µM (active)
[9]
  EC50: > 60 µM (inconclusive)
[10]
  AC50: 3.95 µM (active)
INS1
  AC50: 2.04 µM (active)
[11]
  CC50: > 40 µM (active)

## COC(=O)CCC(=O)OC1(C)C(=O)C=C2C=C3CCCN3C=C2C1=O (stereo unspecified)
[1]
  IC50: 7.67 µM (active)
[2]
  IC50: 6.06 µM (active)

## COc1cc(/C=N/NC(=O)CNc2nnc(O)nc2O)ccc1O
[12]
  IC50: 35.9 µM (active)
Large T antigen
  IC50: 8.93 µM (active)

## COc1ccc(C2c3ccc4ccccc4c3Oc3ncn(Cc4ccco4)c(=N)c32)cc1OC (stereo unspecified)
[13]
  EC50: 8.96 µM (active)
[14]
  AC50: 3.94 µM (active)
[15]
  EC50: 7.09 µM (active)

## O=C(N/N=C/c1ccc(O)cc1O)/C(=C/c1ccccc1)CCO
[14]
  AC50: 6.81 µM (active)
INS1
  AC50: 2.11 µM (active)
Large T antigen
  IC50: 19.4 µM (active)

## COc1ccccc1N(CC(=O)NCc1ccco1)S(=O)(=O)c1ccc(C)cc1
[6]
  IC50: 5.17 µM (active)

## CC(C)(C)OC(=O)NCc1ccc(CNC(=O)c2nc[nH]c2C(=O)NCc2ccc(CNC(=O)OC(C)(C)C)cc2)cc1
[3]
  AC50: > 70 µM (inactive)
[5]
  AC50: 5.89 µM (active)

## CCS(=O)(=O)N1CCCC(C(=O)N2CCc3ccccc3C2)C1 (stereo unspecified)
[1]
  IC50: 17.7 µM (active)
[2]
  IC50: 71.7 µM (inactive)

## CC(=O)N(CCc1ccccc1)c1ccc2c(c1)C1CC2CCN1C(=O)OCc1ccccc1 (stereo unspecified)
[3]
  AC50: > 70 µM (inactive)
[5]
  AC50: 14.3 µM (active)

## COc1ccc(Nc2nc(N)nc(CN3CCC(Cc4ccccc4)CC3)n2)cc1
[13]
  EC50: 23.5 µM (active)
[15]
  EC50: 17.7 µM (active)

## Cc1ccc(C(NC(=O)C2CCCCC2)c2c(O)ccc3ccccc23)cc1 (stereo unspecified)
[13]
  EC50: 21.5 µM (active)
[15]
  EC50: 17.4 µM (active)

## COc1cc(/C=N/NC(=O)Cn2nnc3ccccc32)ccc1O
[12]
  IC50: 24.3 µM (active)
Large T antigen
  IC50: 6.59 µM (active)

## CC1CC(C)CN(C(=O)/C=C/c2ccc([N+](=O)[O-])s2)C1 (stereo unspecified)
[10]
  AC50: 11.9 µM (active)

## Cn1nc(C(C)(C)C)cc1C(=O)N1CCCCC1c1cc(C(=O)Nc2ccc(F)c(Cl)c2)no1 (stereo unspecified)
[3]
  AC50: 5.09 µM (active)
[4]
  AC50: 5.06 µM (active)
[5]
  AC50: 3.04 µM (active)

## Cc1ccc(C(=O)N2C(=S)C(c3ccc(F)cc3)=NC23CCN(C)CC3)cc1
[1]
  IC50: 15 µM (active)
[2]
  IC50: > 100 µM (inactive)

## O=C(/C=C/c1ccc(Cl)cc1)NC(=S)Nc1ccccc1C(=O)O
[6]
  IC50: 8.66 µM (active)

## CC(NC(=O)Nc1cccc([N+](=O)[O-])c1)(C(F)(F)F)C(F)(F)F
[13]
  EC50: 12.3 µM (active)
[15]
  EC50: 12 µM (active)

## Cc1ccc(C(=O)OCC(=O)c2ccc(CC(=O)N3CCOCC3)s2)cc1C
[6]
  IC50: 5.01 µM (active)

## Cc1cc(S(=O)(=O)N2CCN(Cc3ccc4c(c3)OCO4)CC2)cc(C)c1N1CCCC1=O
[13]
  EC50: 36 µM (active)
[15]
  EC50: 45.7 µM (active)

## O=C(CNC(=O)c1ccccc1)N/N=C/c1ccc([N+](=O)[O-])s1
[8]
  EC50: 0.285 µM (active)
[9]
  EC50: 12.7 µM (active)
[10]
  AC50: 5.34 µM (active)

## CC(Oc1ccc(F)cc1)C(=O)Nc1nc(-c2ccccn2)cs1 (stereo unspecified)
[16]
  EC50: > 120 µM (not active)
H9c2
  IC50: > 79 µM (inactive)
[10]
  AC50: 9.42 µM (active)
[17]
  EC50: 10.2 µM (active)
[18]
  EC50: > 120 µM (not active)

## CN1CCN(CC(=O)n2c3c(c4ccccc42)CCCC3)CC1
[1]
  IC50: 16.6 µM (active)
[2]
  IC50: > 100 µM (inactive)
[19]
  EC50: > 195 µM (not active)

## NC(=S)NNc1cccc2cccnc12
[1]
  IC50: 6 µM (active)
[2]
  IC50: 7.91 µM (active)

## COc1ccc(/C=N/NC(=O)c2cccc(NC(=O)c3ccc(Cl)cc3)c2)c(OC)c1
[6]
  IC50: 6.27 µM (active)
